What was measured:
Type in all cases: functional
[1] = test system: Mus musculus; assay: Analgesic activity in mouse assessed as reduction in phenylquinone-induced writhing at 2.5 mg/kg, sc administered 15 mins prior to phenylquinone-challenge measured up to 10 mins relative to control; design: scale not given: the % may be the effect or the level left; conditions: route subcutaneous
[2] = test system: Mus musculus; assay: Analgesic activity in mouse assessed as reduction in phenylquinone-induced writhing at 1.25 mg/kg, sc administered 15 mins prior to phenylquinone-challenge measured up to 10 mins relative to control; design: scale not given: the % may be the effect or the level left; conditions: route subcutaneous
[3] = test system: Mus musculus; assay: Narcotic antagonist activity in sc dosed mouse assessed as inhibition of oxymorphone-induced straub tail response administered 10 mins post oxymorphone-challenge
[4] = test system: Mus musculus; assay: Analgesic activity in sc dosed mouse assessed as reduction in phenylquinone-induced writhing administered 15 mins prior to phenylquinone-challenge measured up to 10 mins
[5] = test system: Mus musculus; assay: Analgesic activity in mouse assessed as reduction in phenylquinone-induced writhing at 40 mg/kg, sc administered 15 mins prior to phenylquinone-challenge measured up to 10 mins relative to control; design: scale not given: the % may be the effect or the level left; conditions: route subcutaneous
[6] = test system: Mus musculus; assay: Analgesic activity in mouse assessed as reduction in phenylquinone-induced writhing at 20 mg/kg, sc administered 15 mins prior to phenylquinone-challenge measured up to 10 mins relative to control; design: scale not given: the % may be the effect or the level left; conditions: route subcutaneous
[7] = test system: Rattus norvegicus; assay: Narcotic antagonist activity in sc dosed rat assessed as reversal of oxymorphone-induced loss of righting reflex
[8] = test system: Rattus norvegicus; assay: Narcotic antagonist activity in sc dosed rat assessed as reversal of morphine-induced analgesia by tail-flick test
[9] = test system: Rattus norvegicus; assay: Analgesic activity in sc dosed rat assessed as reduction in phenylquinone-induced writhing administered 15 mins prior to phenylquinone-challenge measured up to 10 mins
[10] = test system: Mus musculus; assay: Analgesic activity in mouse assessed as reduction in phenylquinone-induced writhing at 10 mg/kg, sc administered 15 mins prior to phenylquinone-challenge measured up to 10 mins relative to control; design: scale not given: the % may be the effect or the level left; conditions: route subcutaneous
[11] = test system: Mus musculus; assay: Narcotic antagonist activity in mouse assessed as inhibition of oxymorphone-induced straub tail response at 2.5 mg/kg, sc administered 10 mins post oxymorphone-challenge relative to control; conditions: route subcutaneous
[12] = test system: Mus musculus; assay: Narcotic antagonist activity in mouse assessed as inhibition of oxymorphone-induced straub tail response at 5 mg/kg, sc administered 10 mins post oxymorphone-challenge relative to control; conditions: route subcutaneous
[13] = test system: Mus musculus; assay: Analgesic activity in po dosed mouse by hot plate test
[14] = test system: Mus musculus; assay: Analgesic activity in po dosed mouse assessed as increase in response time by hot plate test relative to control
[15] = Mus musculus, sc, 10 min, read-out: ED50
[16] = Mus musculus, sc, read-out: ED50

## C=CC[C@]12CCN(C)[C@H](Cc3ccc(O)cc31)[C@H]2O
[1]
  Activity: 78%
[2]
  Activity: 1.25%
[3]; [15]
  ED50: > 40 mg/kg
[4]; [16]
  ED50: 1.9 mg/kg

## C=CC[C@]12CCN(CC3CC3)[C@H](Cc3ccc(O)cc31)[C@H]2O
[3]; [15]
  ED50: 0.5 mg/kg

## C=CC[C@]12CCN(CC3CCC3)[C@H](Cc3ccc(O)cc31)[C@H]2O
[3]; [15]
  ED50: 1.8 mg/kg
[4]; [16]
  ED50: 0.3 mg/kg

## CCC[C@]12CCN(CC3CC3)[C@H](Cc3ccc(O)cc31)[C@H]2O
[3]; [15]
  ED50: 0.62 mg/kg
[4]; [16]
  ED50: 0.07 mg/kg

## CCC[C@]12CCN(CC3CCC3)[C@H](Cc3ccc(O)cc31)[C@H]2O
[3]; [15]
  ED50: 2.5 mg/kg
[4]; [16]
  ED50: 0.24 mg/kg

## CCC[C@]12CCN(CC)[C@H](Cc3ccc(O)cc31)[C@@]2(C)O
[3]; [15]
  ED50: > 40 mg/kg
[4]; [16]
  ED50: 2.1 mg/kg

## C=CC[C@]12CCN(CC)[C@H](Cc3ccc(O)cc31)[C@@]2(C)O.O=C(O)C(=O)O
[3]; [15]
  ED50: > 40 mg/kg
[4]; [16]
  ED50: 2 mg/kg

## C=CC[C@]12CCN(CC3CC3)[C@H](Cc3ccc(O)cc31)[C@@]2(C)O
[4]; [16]
  ED50: 45 mg/kg

## C=CC[C@]12CCN(Cc3ccco3)[C@H](Cc3ccc(O)cc31)[C@@]2(C)O.O=C(O)C(=O)O
[5]
  Activity: 66%
[3]; [15]
  ED50: 1.3 mg/kg
[4]; [16]
  ED50: 36 mg/kg
[6]
  Activity: 0%

## CCC[C@]12CCN(CC3CC3)[C@H](Cc3ccc(O)cc31)[C@@]2(C)O
[7]
  ED50: 0.013 mg/kg
[8]
  ED50: 0.008 mg/kg
[9]
  ED50: 30 mg/kg
[3]; [15]
  ED50: 0.074 mg/kg
[4]; [16]
  ED50: 44 mg/kg

## CCC[C@]12CCN(CC3CCC3)[C@H](Cc3ccc(O)cc31)[C@@]2(C)O.Cl
[8]
  ED50: 0.084 mg/kg
[3]; [15]
  ED50: 1.17 mg/kg
[4]; [16]
  ED50: 0.18 mg/kg

## CC1C[C@]23CCN(C)[C@H](Cc4ccc(O)cc42)[C@H]3O1 (some centres not stated)
[3]; [15]
  ED50: > 40 mg/kg
[4]; [16]
  ED50: 19 mg/kg
[6]
  Activity: 63%
[10]
  Activity: 0%

## CC1C[C@]23CCN(C)[C@H](Cc4ccc(O)cc42)[C@@]3(C)O1 (some centres not stated)
[3]; [15]
  ED50: > 40 mg/kg
[4]; [16]
  ED50: 18 mg/kg
[6]
  Activity: 65%
[10]
  Activity: 5%

## CC1C[C@]23CCN(C4CC4)[C@H](Cc4ccc(O)cc42)[C@H]3O1 (some centres not stated)
[5]
  Activity: 67%
[3]; [15]
  ED50: 8 mg/kg
[4]; [16]
  ED50: 30 mg/kg
[6]
  Activity: 23%

## CC1C[C@]23CCN(C4CC4)[C@H](Cc4ccc(O)cc42)[C@@]3(C)O1 (some centres not stated)
[3]; [15]
  ED50: 0.63 mg/kg
[4]; [16]
  ED50: > 40 mg/kg

## CC1C[C@]23CCN(C4CCC4)[C@H](Cc4ccc(O)cc42)[C@@]3(C)O1 (some centres not stated)
[11]
  ED50: 33 mg/kg
[12]
  ED50: 100 mg/kg
[5]
  Activity: 50%
[3]; [15]
  ED50: 3 mg/kg
[4]; [16]
  ED50: 40 mg/kg
[6]
  Activity: 33%

## CC1C[C@]23CCN(C)[C@H](Cc4ccccc42)[C@H]3O1 (some centres not stated)
[13]
  ED50: 30 mg/kg
[3]; [15]
  ED50: > 40 mg/kg
[14]
  %max: 16%

## CC1C[C@]23CCN(C)[C@H](Cc4ccccc42)[C@@]3(C)O1.Cl (some centres not stated)
[13]
  ED50: 16 mg/kg
[3]; [15]
  ED50: > 40 mg/kg
[14]
  %max: 16%

## Br.CN1CC[C@]23CC(CBr)O[C@]2(C)[C@H]1Cc1ccccc13 (some centres not stated)
[13]
  ED50: 64 mg/kg
[3]; [15]
  ED50: > 40 mg/kg
[14]
  %max: 32%

## CN(C)CC1C[C@]23CCN(C)[C@H](Cc4ccccc42)[C@@]3(C)O1.Cl (some centres not stated)
[13]
  ED50: > 40 mg/kg
[3]; [15]
  ED50: > 40 mg/kg

## C=CC[C@]12CCN(CC3CC3)[C@H](Cc3ccc(O)cc31)[C@@]2(C)O.O=C(O)C(O)C(O)C(=O)O (stereo in doubt; (+)-23a)
[3]
  ED50: >40 mg/kg
[4]
  ED50: >40 mg/kg

## C=CC[C@]12CCN(CC3CCC3)[C@H](Cc3ccc(O)cc31)[C@@]2(C)O.O=C(O)C(O)C(O)C(=O)O (stereo in doubt; (+)-23b)
[3]
  ED50: >40 mg/kg
[4]
  ED50: >40 mg/kg

## C=CC[C@]12CCN(CC3CC3)[C@H](Cc3ccc(O)cc31)[C@@]2(C)O.O=C(O)C(O)C(O)C(=O)O (stereo in doubt; (-)-23a)
[8]
  ED50: 0.006 mg/kg
[9]
  ED50: 8 mg/kg
[3]
  ED50: 0.08 mg/kg
[4]; [16]
  ED50: 44 mg/kg

## C=CC[C@]12CCN(CC3CCC3)[C@H](Cc3ccc(O)cc31)[C@@]2(C)O.O=C(O)C(O)C(O)C(=O)O (stereo in doubt; (-)-23b)
[7]
  ED50: 0.05 mg/kg
[8]
  ED50: 0.08 mg/kg
[9]
  ED50: 0.01 mg/kg
[3]
  ED50: 0.43 mg/kg
[4]
  ED50: 0.06 mg/kg

## Oc1ccc2c(c1)[C@@]13CCCC[C@@]1(O)[C@@H](C2)N(CC1CCC1)CC3 [BUTORPHANOL]
[7]
  ED50: 0.27 mg/kg
[8]
  ED50: 0.43 mg/kg
[9]
  ED50: 0.04 mg/kg
[3]; [15]
  ED50: 0.98 mg/kg
[4]; [16]
  ED50: 0.05 mg/kg

## Oc1ccc2c(c1)[C@@]13CCCC[C@@]1(O)[C@@H](C2)N(CC1CC1)CC3 [OXILORPHAN]
[7]
  ED50: 0.03 mg/kg
[8]
  ED50: 0.012 mg/kg
[9]
  ED50: 8 mg/kg
[3]; [15]
  ED50: 0.19 mg/kg
[4]; [16]
  ED50: 13 mg/kg
